Results reported in ChEMBL document CHEMBL1201862, “PubChem BioAssay data set” (2004).
Calls of active or inactive are those of the source.

Columns and labels:
cells = type: functional
[1] = cytotoxicity toward NIH3T3 fibroblasts, dose response, counter-screen, cell-based, ATP luminescence, mouse fibroblasts (AID 2010); type: functional;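 note: cells exposed to compound for about 90 hours before reading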
[2] = molecular target: T1, Microphthalmia-associated transcription factor (Homo sapiens, UniProt O75030); test: TRPM1 promoter luciferase signal decrease, dose response, MITF inhibitor project, cell-based, SK-MEL-5, cherry-picked, set 3 (AID 493073); type: functional
T1 sequence (O75030 whole entry): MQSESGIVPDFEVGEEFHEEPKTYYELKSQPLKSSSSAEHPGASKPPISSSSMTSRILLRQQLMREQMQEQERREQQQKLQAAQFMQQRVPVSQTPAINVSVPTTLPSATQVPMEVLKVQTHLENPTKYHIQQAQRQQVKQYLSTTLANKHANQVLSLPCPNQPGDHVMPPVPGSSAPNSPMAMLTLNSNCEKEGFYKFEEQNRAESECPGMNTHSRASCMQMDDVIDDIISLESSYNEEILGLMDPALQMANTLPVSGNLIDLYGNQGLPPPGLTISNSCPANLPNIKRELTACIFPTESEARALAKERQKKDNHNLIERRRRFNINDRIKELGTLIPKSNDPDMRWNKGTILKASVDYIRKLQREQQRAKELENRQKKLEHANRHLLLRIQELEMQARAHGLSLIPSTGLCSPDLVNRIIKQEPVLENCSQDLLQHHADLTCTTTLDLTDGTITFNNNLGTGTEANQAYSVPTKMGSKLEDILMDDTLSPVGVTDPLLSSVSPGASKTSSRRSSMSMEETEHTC

[3] = growth suppression of beta-catenin-knockout colon cells, dose response, cell-based, HCT116, human colon tumor (AID 1045); type: functional;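 note: HCT116 colon tumor cells with beta catenin knocked out; cells exposed to compound for 60 hours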
[4] = molecular target: T2, Heat shock factor protein 1 (Mus musculus, UniProt P38532); test: HSF1 potentiators in luciferase reporter cells, confirmation, cell-based, NIH3T3, luminescence, dose retest (AID 435004); type: functional;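 note: stress induced by proteasome inhibitor MG132 added 30 min after compound; luciferase reporter driven by HSF1 response element in NIH3T3 cells; actives raise luminescence as potentiators of the MG132 stress response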
T2 sequence (P38532 whole entry): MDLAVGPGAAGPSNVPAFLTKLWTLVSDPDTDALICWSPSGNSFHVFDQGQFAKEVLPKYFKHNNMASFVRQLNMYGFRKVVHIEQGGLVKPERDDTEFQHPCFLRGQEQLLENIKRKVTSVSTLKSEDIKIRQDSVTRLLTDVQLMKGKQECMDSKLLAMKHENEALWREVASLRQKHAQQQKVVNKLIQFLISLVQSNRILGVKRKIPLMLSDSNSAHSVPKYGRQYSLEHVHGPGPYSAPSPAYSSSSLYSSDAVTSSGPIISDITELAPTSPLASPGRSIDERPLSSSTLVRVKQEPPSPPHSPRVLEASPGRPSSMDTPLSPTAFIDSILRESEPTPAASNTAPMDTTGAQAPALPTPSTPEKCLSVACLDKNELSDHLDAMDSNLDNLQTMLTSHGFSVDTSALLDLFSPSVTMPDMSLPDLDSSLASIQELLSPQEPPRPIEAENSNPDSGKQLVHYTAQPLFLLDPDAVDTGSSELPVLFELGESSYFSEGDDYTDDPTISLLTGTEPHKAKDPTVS

[5] = Vero E6 cell cytotoxicity, dose response, cytotoxicity control for non-replicating M. tuberculosis project, secondary assay (AID 492998); type: functional, VeroE6; conditions: Vero C1008
[6] = HepG2 cell cytotoxicity, dose response, cytotoxicity control for non-replicating M. tuberculosis project (AID 489018); type: functional; conditions: Mycobacterium tuberculosis
[7] = THP-1 cell cytotoxicity, dose response, cytotoxicity control for non-replicating M. tuberculosis project (AID 489025); type: functional
[8] = inhibitors of intracellular T. cruzi replication, confirmation, NIH3T3 host cells, beta-gal luminescence (AID 2044); type: functional, cell-based;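 note: intracellular parasites grown in NIH/3T3 mouse fibroblasts as host cells; luminescent beta-galactosidase reporter signal from transgenic T. cruzi replicating inside host cells; inhibitors lower the luminescence signal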
[9] = growth suppression of PTEN-null colon cells, dose response, cell-based, HCT116 PTEN knockout (AID 1047); type: functional;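 note: HCT116 colon tumor cells with PTEN knocked out; cells exposed to compound for 60 hours before readout; potency for loss of cell viability measured by luminescence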
[10] = molecular target: Ras and Rab interactor 1/Tyrosine-protein kinase ABL1 (Homo sapiens, UniProt P00519+Q13671); type: functional;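 note: biochemical TR-FRET dose-response test measuring inhibition of binding between Rin1 and Abl proteins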
Chain of Ras and Rab interactor 1/Tyrosine-protein kinase ABL1 (P00519 whole entry): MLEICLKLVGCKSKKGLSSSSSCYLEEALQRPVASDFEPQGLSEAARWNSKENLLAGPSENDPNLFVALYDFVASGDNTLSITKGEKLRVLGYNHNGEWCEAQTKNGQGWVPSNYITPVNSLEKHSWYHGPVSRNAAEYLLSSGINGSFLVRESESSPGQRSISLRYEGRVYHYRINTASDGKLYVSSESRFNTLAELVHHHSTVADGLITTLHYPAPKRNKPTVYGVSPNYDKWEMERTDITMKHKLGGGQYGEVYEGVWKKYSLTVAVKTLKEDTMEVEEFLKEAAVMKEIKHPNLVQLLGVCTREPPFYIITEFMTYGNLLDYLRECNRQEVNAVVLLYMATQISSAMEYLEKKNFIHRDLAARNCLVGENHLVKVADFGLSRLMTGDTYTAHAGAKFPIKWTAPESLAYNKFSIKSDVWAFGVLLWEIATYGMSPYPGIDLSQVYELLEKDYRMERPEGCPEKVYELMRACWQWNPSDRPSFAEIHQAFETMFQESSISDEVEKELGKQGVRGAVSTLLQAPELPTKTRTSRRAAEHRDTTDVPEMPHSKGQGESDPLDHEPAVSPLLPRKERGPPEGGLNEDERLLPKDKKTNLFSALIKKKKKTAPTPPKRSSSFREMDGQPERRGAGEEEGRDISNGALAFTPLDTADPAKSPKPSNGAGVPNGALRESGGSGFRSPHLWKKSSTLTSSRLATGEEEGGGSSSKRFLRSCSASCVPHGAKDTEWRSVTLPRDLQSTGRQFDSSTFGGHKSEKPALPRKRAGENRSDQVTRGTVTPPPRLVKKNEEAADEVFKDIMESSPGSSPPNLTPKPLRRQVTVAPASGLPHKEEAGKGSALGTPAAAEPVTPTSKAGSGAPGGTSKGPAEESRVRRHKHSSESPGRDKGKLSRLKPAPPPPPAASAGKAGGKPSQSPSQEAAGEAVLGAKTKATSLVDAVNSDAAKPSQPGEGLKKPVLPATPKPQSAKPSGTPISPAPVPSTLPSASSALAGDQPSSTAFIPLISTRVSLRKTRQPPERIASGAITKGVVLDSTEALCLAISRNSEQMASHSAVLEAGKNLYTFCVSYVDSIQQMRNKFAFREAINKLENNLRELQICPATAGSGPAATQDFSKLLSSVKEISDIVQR
Chain of Ras and Rab interactor 1/Tyrosine-protein kinase ABL1 (Q13671 whole entry): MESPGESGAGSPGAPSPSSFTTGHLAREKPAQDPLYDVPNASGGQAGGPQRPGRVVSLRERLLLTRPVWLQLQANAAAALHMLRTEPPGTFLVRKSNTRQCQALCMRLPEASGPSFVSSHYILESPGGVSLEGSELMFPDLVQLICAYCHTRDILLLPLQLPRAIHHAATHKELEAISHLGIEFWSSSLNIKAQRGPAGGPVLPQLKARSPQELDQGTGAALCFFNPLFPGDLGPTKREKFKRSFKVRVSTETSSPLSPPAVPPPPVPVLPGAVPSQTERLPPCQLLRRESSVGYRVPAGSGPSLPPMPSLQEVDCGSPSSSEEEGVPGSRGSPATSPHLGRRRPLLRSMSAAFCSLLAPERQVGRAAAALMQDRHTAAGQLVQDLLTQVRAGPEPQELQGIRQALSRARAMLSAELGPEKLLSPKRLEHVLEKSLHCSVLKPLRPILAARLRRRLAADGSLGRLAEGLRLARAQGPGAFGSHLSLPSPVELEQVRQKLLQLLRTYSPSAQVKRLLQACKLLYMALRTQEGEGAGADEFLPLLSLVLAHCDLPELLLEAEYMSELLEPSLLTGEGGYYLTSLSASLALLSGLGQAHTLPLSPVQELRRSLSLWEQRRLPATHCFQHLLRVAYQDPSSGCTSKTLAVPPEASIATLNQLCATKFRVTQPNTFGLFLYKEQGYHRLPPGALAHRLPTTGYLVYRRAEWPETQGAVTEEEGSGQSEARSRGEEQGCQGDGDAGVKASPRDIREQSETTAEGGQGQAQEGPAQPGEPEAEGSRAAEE

[11] = molecular target: T3, Short transient receptor potential channel 4 (Mus musculus, UniProt Q9QUQ5); test: mouse TRPC4 channel activators, dose response, cell-based, HEK293 TRPC4/mu-opioid, Fluo-4 calcium (AID 434937); type: functional
T3 sequence (Q9QUQ5 whole entry): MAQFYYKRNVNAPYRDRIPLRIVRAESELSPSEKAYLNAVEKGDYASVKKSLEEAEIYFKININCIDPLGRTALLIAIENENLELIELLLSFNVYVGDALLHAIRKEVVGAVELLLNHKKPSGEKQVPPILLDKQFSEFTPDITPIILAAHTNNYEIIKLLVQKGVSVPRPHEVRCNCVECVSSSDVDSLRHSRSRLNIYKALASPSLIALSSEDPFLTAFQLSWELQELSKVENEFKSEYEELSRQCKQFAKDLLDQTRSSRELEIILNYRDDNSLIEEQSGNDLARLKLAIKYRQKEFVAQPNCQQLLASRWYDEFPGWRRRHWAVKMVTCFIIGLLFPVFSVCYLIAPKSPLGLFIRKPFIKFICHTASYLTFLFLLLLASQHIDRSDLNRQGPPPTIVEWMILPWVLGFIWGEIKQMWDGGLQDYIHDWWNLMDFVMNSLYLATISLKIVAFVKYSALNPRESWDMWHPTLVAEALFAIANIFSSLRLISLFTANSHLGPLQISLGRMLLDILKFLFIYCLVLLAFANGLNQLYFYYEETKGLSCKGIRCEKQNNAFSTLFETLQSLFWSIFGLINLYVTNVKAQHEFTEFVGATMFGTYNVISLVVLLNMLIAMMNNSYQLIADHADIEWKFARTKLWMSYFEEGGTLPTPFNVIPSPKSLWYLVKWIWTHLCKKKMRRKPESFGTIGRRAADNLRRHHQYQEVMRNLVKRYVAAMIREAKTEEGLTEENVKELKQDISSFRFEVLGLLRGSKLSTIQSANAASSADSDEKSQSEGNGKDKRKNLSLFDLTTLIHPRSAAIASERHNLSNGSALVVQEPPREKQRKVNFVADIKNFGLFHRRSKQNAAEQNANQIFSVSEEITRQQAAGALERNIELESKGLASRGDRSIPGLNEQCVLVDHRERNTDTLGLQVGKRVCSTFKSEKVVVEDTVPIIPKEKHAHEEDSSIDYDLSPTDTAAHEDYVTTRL

[12] = CRF-BP/CRF-R2 complex antagonists, dose response, cell-based, uHTS hits, 384-well (AID 651639); type: functional, Homo sapiens; conditions: read-out: IC50_Mean
Genome polyprotein = Genome polyprotein (dengue virus type 2, UniProt P29990); test: Dengue-2 NS5 methyltransferase inhibitors, primary screen, biochemical, confirmation dose response (AID 588689); type: functional
Chain of Genome polyprotein (P29990 2492-3391 limits assumed): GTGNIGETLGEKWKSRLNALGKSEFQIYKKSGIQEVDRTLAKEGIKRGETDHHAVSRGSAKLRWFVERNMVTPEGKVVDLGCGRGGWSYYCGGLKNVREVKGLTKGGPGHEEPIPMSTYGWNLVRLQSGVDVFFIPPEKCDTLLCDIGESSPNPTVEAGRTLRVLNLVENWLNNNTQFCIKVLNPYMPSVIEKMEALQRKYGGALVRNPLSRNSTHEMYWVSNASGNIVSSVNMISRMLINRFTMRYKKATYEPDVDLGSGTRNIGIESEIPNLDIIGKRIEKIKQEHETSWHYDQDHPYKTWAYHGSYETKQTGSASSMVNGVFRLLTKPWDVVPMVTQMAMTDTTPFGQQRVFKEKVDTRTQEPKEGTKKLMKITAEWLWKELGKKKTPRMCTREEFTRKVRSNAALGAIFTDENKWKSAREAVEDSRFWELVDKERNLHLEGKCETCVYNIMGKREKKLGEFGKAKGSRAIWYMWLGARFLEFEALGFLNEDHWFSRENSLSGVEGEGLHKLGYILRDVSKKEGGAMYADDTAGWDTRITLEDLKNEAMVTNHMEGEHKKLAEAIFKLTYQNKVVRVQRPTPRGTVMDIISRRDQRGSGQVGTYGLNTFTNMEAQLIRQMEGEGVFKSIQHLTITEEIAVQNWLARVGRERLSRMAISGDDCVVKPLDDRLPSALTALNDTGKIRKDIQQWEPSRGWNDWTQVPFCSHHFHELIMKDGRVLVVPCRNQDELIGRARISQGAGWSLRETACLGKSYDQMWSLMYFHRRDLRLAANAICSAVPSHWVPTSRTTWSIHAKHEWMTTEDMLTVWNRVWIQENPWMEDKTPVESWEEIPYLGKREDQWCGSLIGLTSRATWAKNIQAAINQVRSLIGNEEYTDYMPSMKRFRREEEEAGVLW

[13] = molecular target: T4, Corticotropin-releasing factor receptor 2/Corticotropin-releasing factor-binding protein (Homo sapiens, UniProt P24387+Q13324); test: Dose Response confirmation of uHTS hits for small molecule antagonists of the CRF-binding protein and CRF-R2 receptor complex.; type: functional; conditions: read-out: IC50_Mean
T4 sequence (Q13324 whole entry): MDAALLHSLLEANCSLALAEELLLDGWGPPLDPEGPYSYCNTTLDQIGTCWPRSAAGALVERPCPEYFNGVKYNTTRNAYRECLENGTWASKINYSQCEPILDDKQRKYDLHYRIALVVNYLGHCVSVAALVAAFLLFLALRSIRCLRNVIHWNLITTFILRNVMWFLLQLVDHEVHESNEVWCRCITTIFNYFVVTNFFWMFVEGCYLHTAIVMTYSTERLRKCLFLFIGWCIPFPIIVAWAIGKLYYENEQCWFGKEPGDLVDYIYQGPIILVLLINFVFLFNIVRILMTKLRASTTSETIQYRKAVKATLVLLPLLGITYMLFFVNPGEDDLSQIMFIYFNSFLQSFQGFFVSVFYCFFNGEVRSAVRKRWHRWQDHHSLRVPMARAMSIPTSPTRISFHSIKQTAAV
T4 sequence (P24387 whole entry): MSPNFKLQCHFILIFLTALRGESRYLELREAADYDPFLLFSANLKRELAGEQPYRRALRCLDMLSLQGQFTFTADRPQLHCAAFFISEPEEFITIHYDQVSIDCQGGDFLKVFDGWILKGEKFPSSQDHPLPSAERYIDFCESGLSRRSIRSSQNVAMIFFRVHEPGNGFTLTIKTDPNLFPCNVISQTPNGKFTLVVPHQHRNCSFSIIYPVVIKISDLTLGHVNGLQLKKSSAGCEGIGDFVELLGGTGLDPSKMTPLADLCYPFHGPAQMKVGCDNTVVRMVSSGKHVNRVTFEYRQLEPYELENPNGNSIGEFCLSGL

[14] = molecular target: T4, Corticotropin-releasing factor receptor 2/Corticotropin-releasing factor-binding protein; test: activators of CRF receptor 2 with binding protein – uHTS hits, confirmation (AID 602473); type: functional; conditions: read-out: EC50_Mean
[15] = molecular target: T5, High affinity choline transporter 1 (Homo sapiens, UniProt Q9GZV3); test: CHT inhibitors, dose response, cell-based, 5-point CRC, membrane potential dye (AID 504840); type: functional
T5 sequence (Q9GZV3 whole entry): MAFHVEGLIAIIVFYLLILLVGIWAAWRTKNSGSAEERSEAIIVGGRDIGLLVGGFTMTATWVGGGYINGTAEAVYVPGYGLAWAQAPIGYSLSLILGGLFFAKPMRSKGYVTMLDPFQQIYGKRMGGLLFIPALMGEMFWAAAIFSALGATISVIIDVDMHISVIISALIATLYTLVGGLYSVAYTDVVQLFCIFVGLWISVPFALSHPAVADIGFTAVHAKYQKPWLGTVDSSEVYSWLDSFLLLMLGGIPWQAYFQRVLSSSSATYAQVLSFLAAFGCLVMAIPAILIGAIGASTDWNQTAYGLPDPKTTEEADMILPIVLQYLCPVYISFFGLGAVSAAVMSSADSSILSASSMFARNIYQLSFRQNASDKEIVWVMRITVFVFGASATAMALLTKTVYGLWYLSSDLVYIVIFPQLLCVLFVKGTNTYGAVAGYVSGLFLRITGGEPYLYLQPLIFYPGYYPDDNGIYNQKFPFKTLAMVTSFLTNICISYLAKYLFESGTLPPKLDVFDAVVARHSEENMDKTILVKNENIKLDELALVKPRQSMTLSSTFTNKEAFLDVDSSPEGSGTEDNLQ

Streptococcus = test: Group A Streptococcus viability loss, dose response, counter-screen for streptokinase expression inhibitor project, luminescence, BacTiterGlo (AID 1915); type: functional, organism-based;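 note: potency for reduction of bacterial viability or growth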
Streptokinase A = molecular target: T6, Streptokinase A (Streptococcus pyogenes serotype M1, UniProt P10520); test: S. pyogenes streptokinase expression inhibitors, potency, dose response, plasminogen activation absorbance, OD405 (AID 1914); type: functional, Streptococcus pyogenes M1 GAS;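 note: secreted streptokinase activity via plasminogen activation per viability signal from cell pellet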
T6 sequence (P10520 whole entry): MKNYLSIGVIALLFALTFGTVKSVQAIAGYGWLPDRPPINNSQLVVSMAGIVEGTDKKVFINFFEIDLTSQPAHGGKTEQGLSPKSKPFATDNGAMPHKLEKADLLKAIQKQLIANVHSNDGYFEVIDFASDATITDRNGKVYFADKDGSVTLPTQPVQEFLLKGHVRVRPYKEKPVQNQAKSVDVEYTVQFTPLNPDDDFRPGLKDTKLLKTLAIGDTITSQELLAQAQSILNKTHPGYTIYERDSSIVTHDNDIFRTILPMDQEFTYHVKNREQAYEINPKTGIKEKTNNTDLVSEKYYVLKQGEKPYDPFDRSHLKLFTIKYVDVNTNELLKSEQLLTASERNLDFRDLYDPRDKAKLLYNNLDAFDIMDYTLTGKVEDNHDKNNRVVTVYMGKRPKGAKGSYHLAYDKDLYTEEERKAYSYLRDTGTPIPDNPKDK

[16] = tested on: Streptococcus sp. 'group A'; test: growth inhibition of control SK(-) GAS strain, dose response, counter-screen for streptokinase expression inhibitor project, luminescence, kanamycin, BacTiterGlo, confirmation (AID 1900); type: functional, organism-based
[17] = molecular target: FAD-linked sulfhydryl oxidase ALR (Homo sapiens, UniProt P55789); test: inhibitors of human ALR sulfhydryl oxidase, dose response, biochemical, H2O2 detection, luminescence, cherry-pick (AID 493248)
Chain of FAD-linked sulfhydryl oxidase ALR (P55789 whole entry): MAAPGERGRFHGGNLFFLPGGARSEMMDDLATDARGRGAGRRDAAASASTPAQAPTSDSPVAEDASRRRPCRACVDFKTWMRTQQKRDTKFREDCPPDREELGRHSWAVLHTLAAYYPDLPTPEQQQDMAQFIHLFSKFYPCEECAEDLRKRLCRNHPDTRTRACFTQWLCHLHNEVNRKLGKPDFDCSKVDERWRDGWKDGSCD

SMILES: O=[N+]([O-])c1ccc(-n2nnnc2-c2ccccc2)c([N+](=O)[O-])c1
- IC50 (cells): 5.22 µM (active)
- EC50 [1]: > 60 µM (not active)
- AC50 [2]: 7.37 µM (active)
- EC50 [3]: 5.3 µM (active)
- EC50 [4]: 9.09 µM (active)
- CC50 [5]: 8.41 µM (active)
- CC50 [6]: 19.2 µM (active)
- CC50 [7]: 19.6 µM (active)
- EC50 [8]: 1.75 µM (active)
- EC50 [9]: 4.92 µM (active)

SMILES: CC(C)c1ccc(NC(=O)CSc2nnc(CN3CCOCC3)n2C)cc1
- IC50 [10]: 14.2 µM (inactive)

SMILES: CC1CC(C)CN(CCCNC(=O)c2nn(C)c3c2CS(=O)(=O)c2ccccc2-3)C1 (stereo not given)
- EC50 [11]: 0.237 µM (active)

SMILES: COc1ccc(-n2c3c(cc(C(=O)NNc4ccccc4)c2=O)C(=O)CC(C)(C)C3)cc1
- EC50 [11]: 1.06 µM (active)

SMILES: O=c1c(Sc2ccccc2)c(C(F)(F)F)[nH]n1-c1ccccc1
- IC50 [12]: > 20 µM (inactive)
- IC50 (Genome polyprotein): 59.5 µM (active)
- IC50 [13]: 22.3 µM (active)
- EC50 [14]: > 53 µM (inactive)

SMILES: Cc1ccc(NC(=O)c2ccc(CN3CC(=O)N4CCCCC4C3=O)cc2)c(C)c1 (stereo not given)
- IC50 [15]: 4.47 µM (active)

SMILES: Oc1cc2ccccc2cc1-c1nnc(S)o1
- IC50 [12]: 13.4 µM (active)
- EC50 (Streptococcus): > 150 µM (not active)
- EC50 (Streptokinase A): 23.5 µM (active)
- IC50 [13]: 10.5 µM (active)
- EC50 [16]: 10.3 µM (active)
- EC50 [14]: > 53 µM (inactive)
- AC50 [17]: 0.301 µM (active)

SMILES: C=CCNc1ncnc2c1ncn2[C@H]1CN(Cc2ccc(-c3ccccc3)cc2)C[C@@H](CO)O1
- IC50 [10]: 24.2 µM (inactive)

SMILES: COc1ccc(Oc2ccc(C(F)(F)F)cc2NC(=O)c2ccc(OC)cc2)cc1
- IC50 [12]: 7.95 µM (active)
- IC50 [13]: < 0.368 µM (active)
- EC50 [14]: > 53 µM (inactive)

SMILES: COc1cccc(/C=C2\SC(=S)N(NC(=O)c3ccncc3)C2=O)c1
- IC50 [15]: 12.6 µM (active)
